# Test results published in PMC12736495, “First Insights into the Anti-Inflammatory Potential of Colliguaja odorifera Molina Leaf Extracts and Their Isolated Phenolic Compounds” (Plants, 2025).
# “Also recorded” adds a separate entry of the source. Where two headings read alike, the source gives them in different places.
# How the values were obtained:
# [1] = molecular target: T1, lipoxygenase Type I-B LOX A from Glycine max L. (soybean) (15-LOX) (Glycine max, UniProt P08170); assay: Inhibitory LOX activity assay (linoleic acid, absorbance at 234 nm); type: biochemical
# T1 construct: purchased Sigma-Aldrich (Steinheim, Germany)
# T1 sequence (P08170 1-839): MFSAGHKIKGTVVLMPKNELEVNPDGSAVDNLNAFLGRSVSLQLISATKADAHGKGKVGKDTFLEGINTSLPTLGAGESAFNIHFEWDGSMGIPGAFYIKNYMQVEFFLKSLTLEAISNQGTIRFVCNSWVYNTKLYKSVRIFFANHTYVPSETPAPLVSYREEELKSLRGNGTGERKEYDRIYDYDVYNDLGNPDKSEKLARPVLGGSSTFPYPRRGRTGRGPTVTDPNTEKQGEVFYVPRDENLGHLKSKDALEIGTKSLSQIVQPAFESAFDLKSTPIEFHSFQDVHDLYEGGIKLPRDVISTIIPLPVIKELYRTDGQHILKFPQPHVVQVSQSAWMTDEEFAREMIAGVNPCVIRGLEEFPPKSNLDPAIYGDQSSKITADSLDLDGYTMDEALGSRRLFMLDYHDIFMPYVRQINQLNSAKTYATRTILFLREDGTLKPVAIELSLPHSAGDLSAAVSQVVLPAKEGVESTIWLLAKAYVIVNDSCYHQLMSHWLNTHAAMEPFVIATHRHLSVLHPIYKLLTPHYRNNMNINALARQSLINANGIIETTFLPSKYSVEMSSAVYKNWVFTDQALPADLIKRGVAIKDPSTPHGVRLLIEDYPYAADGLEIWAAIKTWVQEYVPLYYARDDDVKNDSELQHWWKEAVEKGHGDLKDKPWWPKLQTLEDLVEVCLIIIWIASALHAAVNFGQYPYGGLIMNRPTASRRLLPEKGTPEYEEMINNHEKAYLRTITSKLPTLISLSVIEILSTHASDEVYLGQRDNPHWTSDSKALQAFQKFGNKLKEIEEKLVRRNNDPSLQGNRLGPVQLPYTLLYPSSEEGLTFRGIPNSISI
# Experimental: The inhibitory LOX assay was conducted according to the procedure established by Lyckander and Malterud. The lipoxygenase Type I-B LOX A from Glycine max L. (soybean) (CAS: 9029-60-1) (15-LOX) with an optimal pH of 8.0–9.0 and linoleic acid used here, was obtained from Sigma-Aldrich (Steinheim, Germany).
# A linoleic acid ethanol solution (268 µM) was prepared, and 50 µL of this solution was used to prepare concentrations ranging from 0.6 to 26 µg/mL for the HA-E sample, and from 0.6 to 12.9 µg/mL for the EA-E and B-E samples. Then the volume for each concentration was adjusted to 1 mL with 200 mM borate buffer (pH 8.75) containing 0.005% Tween 80. The reaction was initiated by adding 1.5 µL of Soybean 1-LOX (948 U), equivalent to 0.054 g/mL. Enzymatic activity was monitored by measuring the increase in absorbance at 234 nm for 4 min at 37 °C. Each enzyme measurement for each dilution was repeated three times. All tests were performed in triplicate. For this purpose, three samples were taken from each extract. For each of them, enzymatic activity was determined as described above. […] The percentage inhibition of enzyme activity was calculated by comparing the absorbance of the samples to that of the blank, using Equation (1), where A0 is the absorbance of the blank, and A1 is the absorbance of the sample.% inhibition = [(A0 − A1)/A0] × 100(1)
# The percentage of inhibition was plotted against sample concentration to calculate the IC50 value.
# sPLA2 (Type V) = molecular target: T2, sPLA2 (Type V) (Homo sapiens, UniProt P39877); assay: Screening assay for phospholipase A2 inhibitors (Type V), Cayman kit; type: biochemical
# T2 construct: purchased Cayman Chemical Co. (Ann Arbor, MI, USA)
# T2 sequence (P39877 21-138): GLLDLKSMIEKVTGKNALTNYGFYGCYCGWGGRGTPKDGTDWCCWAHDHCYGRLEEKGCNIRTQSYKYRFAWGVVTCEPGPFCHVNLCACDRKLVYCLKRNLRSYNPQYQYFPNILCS
# Experimental: The phospholipase A2 inhibitory activity was determined using the phospholipase A2 (sPLA2) inhibitor detection assay kit (Type V). This kit was purchased from Cayman Chemical Co. (Ann Arbor, MI, USA). Briefly, 10 μL of C. odorifera extracts (HA-E, EA-E, B-E, and W-E, separately) were pre-incubated with 25 mM Tris-HCl buffer at pH 7.5, including 10 μL of phospholipase A2. The reaction was initiated by adding 200 μL of a 1.66 mM diheptanoyl thio-PC substrate solution. The plate was then shaken for 30 s and incubated at 25 °C for 15 min. Then, 10 µL of 5,5′-dithiobis(2-nitrobenzoic acid) (DTNB) was added to stop the enzymatic reaction and allow color development. The reaction mixture was stirred on a shaker for one minute, and the absorbance was subsequently measured at 405 nm with a spectrophotometer (METASH, UV-1500B; Shanghai Metash Instrument Co., Shanghai, China). According to the kit instructions, the sPLA2 activity was evaluated with extract concentrations ranging from 27 to 108 μg/mL. Arachidonic thioester phosphatidylcholine was used as the positive control. […] All tests were performed in triplicate.
# Lipoxygenase = conditions: cited from earlier work
# hyaluronidase = molecular target: T3, hyaluronidase (Bos taurus, UniProt Q2YDK3); assay: Hyaluronidase inhibition assay (turbidimetric kit); type: biochemical; conditions: sodium hyaluronate substrate, 37 °C, mean ± s.d.
# T3 sequence (Q2YDK3 36-553): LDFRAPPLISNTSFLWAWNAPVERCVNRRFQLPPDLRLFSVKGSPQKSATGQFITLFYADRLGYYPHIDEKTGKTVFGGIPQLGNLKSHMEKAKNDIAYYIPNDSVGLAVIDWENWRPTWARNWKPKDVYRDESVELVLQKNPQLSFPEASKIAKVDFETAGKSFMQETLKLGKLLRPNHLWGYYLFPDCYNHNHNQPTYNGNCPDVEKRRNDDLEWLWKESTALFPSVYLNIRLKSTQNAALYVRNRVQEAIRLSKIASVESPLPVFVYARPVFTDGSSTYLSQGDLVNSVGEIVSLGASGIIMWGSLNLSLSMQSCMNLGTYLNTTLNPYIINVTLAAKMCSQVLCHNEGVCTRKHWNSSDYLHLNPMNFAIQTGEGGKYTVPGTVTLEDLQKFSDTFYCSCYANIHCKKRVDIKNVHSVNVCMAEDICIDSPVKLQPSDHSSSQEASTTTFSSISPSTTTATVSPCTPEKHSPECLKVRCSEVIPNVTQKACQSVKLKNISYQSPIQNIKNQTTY
# Experimental: The hyaluronidase inhibitory activity of the extracts was assessed using the Hyaluronidase Inhibitor Detection Assay Kit purchased from Sigma-Aldrich (St. Louis, MO, USA), which employs a two-step turbidimetric reaction to measure the amount of hyaluronic acid hydrolyzed by the enzyme, where the decrease in turbidity is proportional to the enzymatic activity of the sample. The assay was conducted according to the manufacturer’s instructions, with slight modifications, using 96-well plates. Briefly, a reaction mixture containing 10 μL of C. odorifera extract (HA-E, EA-E, B-E, and W-E, separately) and 20 μL of the enzyme (at a concentration of 100 U/mL in incubation buffer) was mixed in each well. After a 15 min incubation at 37 °C, a 20 μL substrate solution (0.1% sodium hyaluronate) was added to each well. The plates were incubated at 37 °C for an additional 20 min. Then, non-hydrolyzed […] was precipitated by adding 250 μL of 2.5% cetyltrimethylammonium bromide (CTAB). […] The intensity of complex formation was measured by absorbance at 630 nm in a spectrophotometer (METASH, UV-1500B). […] The percentage of hyaluronidase inhibition was calculated using Equation (2), where AS is the absorbance of the solution with the sample extract, AC is the absorbance of the solution without inhibitor, and AT is the absorbance of the enzyme.Inhibition = (AS − AC)/(AT − AC) × 100(2)
# [2] = LOX Inhibition (IC50 µg/mL), soybean 15-LOX, linoleic acid substrate, borate buffer pH 8.75, 37 °C, mean ± s.d.
# [3] = anti-LOX activity, concentration for 50% inhibition in µM, same LOX IC50 expressed in µM
smiles,measurement,setting,value
O=C(O)c1cc(O)c(O)c(O)c1 [Gallic acid],IC50,[1]; [2],2.17 µM
same,IC50,[1]; [3],2.2 µM
same,IC50,sPLA2 (Type V),65.6 µM
COc1ccc2c(c1)c(CC(=O)O)c(C)n2C(=O)c1ccc(Cl)cc1 [Indomethacin],Lipoxygenase inhibition IC50,Lipoxygenase; extract and its control,7.9 µg/mL
O=c1cc(-c2ccccc2)oc2cc(O)c(O)c(O)c12 [Baicalein],Lipoxygenase inhibition IC50,Lipoxygenase; Euphorbiaceae extract and its control,22.4 µg/mL
same,Lipoxygenase inhibition IC50,Lipoxygenase; extract and its control,0.15 µg/mL
CC(C)Cc1ccc(C(C)C(=O)O)cc1 (centres unmarked) [Ibuprofen],Lipoxygenase inhibition IC50,Lipoxygenase; extract and its control,69.7 µg/mL
COC(=O)c1cc(O)c(O)c(O)c1 [Methyl gallate],IC50,[1]; [2],330 µM
"O=c1c(O)c(-c2ccc(O)c(O)c2)oc2cc(O)cc(O)c12 [Quercetin, reference compound]",IC50,"sPLA2 (Type V); sPLA2-V, diheptanoyl thio-PC substrate, 25 °C, mean ± s.d., read-out: sPLA2 Inhibition (IC50 µg/mL) (converted)",77.7 µM
O=C(O)C1=C[C@@H](O)[C@@H](O)[C@H](O)C1 [Shikimic acid],IC50,[1]; [2],5.57 µM
same,IC50,[1]; [3],5.6 µM
same,sPLA2 Inhibition (IC50 µg/mL),"sPLA2 (Type V); sPLA2-V, diheptanoyl thio-PC substrate, 25 °C, mean ± s.d.",did not elicit anti-sPLA2-V; also recorded: not active
same,HA Inhibition (IC50 µg/mL),hyaluronidase,did not elicit anti-sPLA2-V and anti-hyaluronidase activities
CCOC(=O)c1cc(O)c(O)c(O)c1 [Ethyl gallate],IC50,"[1]; soybean 15-LOX, linoleic acid substrate, borate buffer pH 8.75, 37 °C, mean ± s.d., read-out: LOX Inhibition (IC50 µg/mL) (converted)",329 µM
